Marks after values point to notes of the source that are not given here.
Key:
Barley = test: Whole plant screen for plant growth regulator activity, barley (BR); assay type: in vivo, Barley (Atem); settings: BR, 4000 ppm (4 kg/ha), visual score after 2-6 weeks; for T = Tillering or side shooting: * = decrease in tillering
Procedure: (§1) Compounds 1 to 3 in Table 1 were tested for plant growth regulator activity against five species for various growth effects relevant to plant growth regulation.
(§2) The plant species used in this screen are presented in Table II with the leaf stage at which they were sprayed. Each chemical was applied at 4000 ppm (4 kg/ha in a 1000 l/ha field volume) using a tracksprayer and a SS8004E (Teejet) nozzle.
(§3) After spray the plants were grown in a glasshouse with 25° C. day/22° C. night temperatures and supplementary lighting was supplied when necessary (from mercury vapour lamps), to provide a 16 hour photoperiod. The exception to this were the temperate cereals, wheat and barley which were grown in 16° C. day/13° C. night temperatures.
(§4) After 2-6 weeks in the glasshouse, depending on the time of year, the plants were visually assessed for morphological characteristics. Formulation blanks were used as controls to assess the plants.
(§5) Additional compounds in Table I were tested for plant growth regulator activity using the method of Example 60 except that Tomato was included in the test as an additional species. Tomato, Ailsa Craig, was grown in a single 3 inch pot in peat and treated at the 2 to 21/2 leaves growth stage. The results were presented in Table IV in which Tomato is indicated by the code TO and the Key is otherwise as for Table III.

Tomato = test: Whole plant screen for plant growth regulator activity, tomato (TO); assay type: in vivo, Tomato (Ailsa Craig); settings: 4000 ppm (4 kg/ha), visual score after 2-6 weeks
Procedure: as §2, §3, §4, §5
An astrisk (*) after a score under "T" (tillering) indicated a decrease in tillering.

Wheat = test: Whole plant screen for plant growth regulator activity, wheat (WW); assay type: in vivo, Wheat (Timmo); settings: for G = Greening effect / I = Interligular or internodal length reduction / R = Retardation / T = Tillering or side shooting: WW, 4000 ppm (4 kg/ha), visual score after 2-6 weeks; for T = Tillering or side shooting: * = decrease in tillering
Procedure: as §1, §2, §3, §4, §5

Apple = test: Whole plant screen for plant growth regulator activity, apple (AP); assay type: in vivo, Apple (Red Delicious); settings: 4000 ppm (4 kg/ha), visual score after 2-6 weeks
Procedure: as §1, §2, §3, §4, §5

Rice = test: Whole plant screen for plant growth regulator activity, rice (RC); assay type: in vivo, Rice (Ishikari); settings: 4000 ppm (4 kg/ha), visual score after 2-6 weeks; for T = Tillering or side shooting: * = decrease in tillering
Procedure: as §1, §2, §3, §4, §5

Row | SMILES | T = Tillering or side shooting (Barley) | I = Interligular or internodal length reduction (Tomato) | R = Retardation (Tomato) | A = Apical damage (Wheat; 4000 ppm) | G = Greening effect (Tomato) | G = Greening effect (Wheat) | I = Interligular or internodal length reduction (Wheat) | R = Retardation (Wheat) | I = Interligular or internodal length reduction (Barley) | R = Retardation (Barley) | T = Tillering or side shooting (Wheat) | G = Greening effect (Apple) | I = Interligular or internodal length reduction (Apple) | R = Retardation (Apple) | G = Greening effect (Rice) | I = Interligular or internodal length reduction (Rice) | R = Retardation (Rice) | T = Tillering or side shooting (Rice) | G = Greening effect (Barley) | T = Tillering or side shooting (Tomato; * = decrease in tillering)
1 | CCCCC(O)(c1cncnc1)C(C)(C)C (centres unmarked) [Compound 35] | 3 (61-100%) | 2 (31-60%) | 2 (31-60%) | 2* | – | – | – | – | – | – | – | – | – | – | – | – | – | – | – | –
2 | CCCCCCCC(O)(c1cncnc1)C(C)C (centres unmarked) [Compound 26] | 2 (31-60%) | 1 (10-30%) | 2 (31-60%) | – | 1 (10-30%) | 1 (10-30%) | 1 (10-30%) | 2 (31-60%) | – | – | – | – | – | – | – | – | – | – | – | –
3 | CC(C)CCC(O)(c1cncnc1)C(C)(C)C (centres unmarked) [Compound 29] | 2 (31-60%) | 2 (31-60%) | 2 (31-60%) | – | 1 (10-30%) | 2 (31-60%) | 3 (61-100%) | 2 (31-60%) | 2 (31-60%) | 2 (31-60%) | 2 (31-60%) | 1 (10-30%) | 2 (31-60%) | 2 (31-60%) | 1 (10-30%) | 3 (61-100%) | 2 (31-60%) | 1 (10-30%) | – | –
4 | CCCCCCC#CC(O)(c1cncnc1)C(C)(C)C (centres unmarked) [Compound 33] | 2 (31-60%) | 1 (10-30%) | 2 (31-60%) | – | 1 (10-30%) | 1 (10-30%) | 1 (10-30%) | – | – | – | – | – | – | – | – | – | – | – | – | –
5 | CCC(C)CCCC(O)(c1cncnc1)C(C)C (centres unmarked) [Compound 21] | 3 (61-100%) | 2 (31-60%) | 2 (31-60%) | – | 2 (31-60%) | 2 (31-60%) | 2 (31-60%) | 2 (31-60%) | 3 (61-100%) | 2 (31-60%) | – | – | 2 (31-60%) | 2 (31-60%) | 1 (10-30%) | 2 (31-60%) | 2 (31-60%) | 2 (31-60%) | 1 (10-30%) | –
6 | CCCCCCC(O)(c1cncnc1)C(C)(C)C (centres unmarked) [Compound 30] | 2 (31-60%) | 2 (31-60%) | 2 (31-60%) | – | 2 (31-60%) | 2 (31-60%) | 3 (61-100%) | 3 (61-100%) | 3 (61-100%) | 2 (31-60%) | 3 (61-100%) | – | 2 (31-60%) | 2 (31-60%) | 2 (31-60%) | 3 (61-100%) | 2 (31-60%) | 3 (61-100%) | 1 (10-30%) | –
7 | CC(C)(C)/C=C/C(O)(c1cncnc1)C(C)(C)C (centres unmarked) [Compound 39] | 3 (61-100%) | 3 (61-100%) | 3 (61-100%) | – | 2 (31-60%) | 1 (10-30%) | 3 (61-100%) | 3 (61-100%) | 3 (61-100%) | 3 (61-100%) | 2 (31-60%) | – | – | – | – | – | – | – | – | –
8 | CC(C)CC#CC(O)(c1cncnc1)C1CC1 (centres unmarked) [Compound 56] | 3 (61-100%) | 1 (10-30%) | 1 (10-30%) | – | 1 (10-30%) | 2 (31-60%) | 3 (61-100%) | 2 (31-60%) | 3 (61-100%) | 3 (61-100%) | 1 (10-30%) | – | – | – | – | – | – | – | 3 (61-100%) | –
9 | CC(C)C(O)(CC1CCCC1)c1cncnc1 (centres unmarked) [Compound 27] | 2* | 2 (31-60%) | 2 (31-60%) | – | 2 (31-60%) | 2 (31-60%) | 2 (31-60%) | 2 (31-60%) | – | – | – | – | – | – | – | – | – | – | – | –
10 | CC(C)(C)C(O)(C#CCCCl)c1cncnc1 (centres unmarked) [Compound 36] | 3 (61-100%) | 2 (31-60%) | 2 (31-60%) | – | 2 (31-60%) | 2 (31-60%) | 3 (61-100%) | 2 (31-60%) | 3 (61-100%) | 3 (61-100%) | 1 (10-30%) | – | – | – | – | – | – | – | 3 (61-100%) | –
11 | CC(C)C(O)(CCC(C)(C)C)c1cncnc1 (centres unmarked) [Compound 20] | – | 3 (61-100%) | 3 (61-100%) | – | 2 (31-60%) | 2 (31-60%) | 3 (61-100%) | 3 (61-100%) | 2 (31-60%) | 2 (31-60%) | – | 2 (31-60%) | 3 (61-100%) | 3 (61-100%) | 2 (31-60%) | 3 (61-100%) | 2 (31-60%) | 3 (61-100%) | 1 (10-30%) | –
12 | CC(C)(C)C(O)(C#CCCCCCl)c1cncnc1 (centres unmarked) [Compound 37] | 3 (61-100%) | – | – | – | – | 2 (31-60%) | 3 (61-100%) | 2 (31-60%) | 3 (61-100%) | 3 (61-100%) | 1 (10-30%) | – | – | – | – | – | – | – | 3 (61-100%) | –
13 | CCC(Cl)CC#CC(O)(c1cncnc1)C(C)(C)C (centres unmarked) [Compound 38] | 3 (61-100%) | 3 (61-100%) | 3 (61-100%) | – | 2 (31-60%) | 2 (31-60%) | 3 (61-100%) | 2 (31-60%) | 3 (61-100%) | 3 (61-100%) | 1 (10-30%) | – | – | – | – | – | – | – | 3 (61-100%) | –
14 | CC(C)(C)/C=C/C(O)(c1cncnc1)C(C)(C)CF (centres unmarked) [Compound 49, 3-fluoro-2,2-dimethyl-1-(3,3-dimethylbut-1-ene)-1-(pyrimidin-5-yl)-propan-1-ol] | 3 (61-100%) | 1 (10-30%) | 2 (31-60%) | – | 1 (10-30%) | 1 (10-30%) | 2 (31-60%) | 2 (31-60%) | – | – | 1 (10-30%) | – | – | – | – | – | – | – | – | –
15 | CC(C)CCCCC(O)(c1cncnc1)C(C)C (centres unmarked) [Compound 22] | – | 2 (31-60%) | 2 (31-60%) | – | 2 (31-60%) | 2 (31-60%) | 2 (31-60%) | 2 (31-60%) | 1 (10-30%) | 1 (10-30%) | 1 (10-30%) | – | 1 (10-30%) | 1 (10-30%) | – | – | – | – | – | 1 (10-30%)
